19 compounds from patent US11702422B2, “Imidazopyridazines as modulators of IL-17” (Janssen Pharmaceutica NV, priority 2020, dated 2023) can be followed below.

As usually defined, the pIC50 is the negative decadic logarithm of the IC50, by convention in mol/L. Higher therefore signals a small IC50.

The target of assay [1] is IL-17A(FLAG-Tagged): IL-17RA(His-Tagged) (Homo sapiens, UniProt Q16552, K93Q). The assay can be described thus: IL-17A(FLAG-Tagged): IL-17RA(His-Tagged) Binding Disruption Eu-HTRF Assay. As to conditions: IL-17A/IL-17RA binding disruption, simple average if tested more than once. The procedure, abridged: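 IC50 comes from a one-site competition fit of the HTRF 665/620 nm ratio. Compound dilutions (2-fold, 22 points) were held 1 h rt with FLAG-tagged IL-17A dimer, then His-tagged IL-17RA plus Eu-cryptate anti-FLAG and D2 anti-His antibodies were added for 2 h rt.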
Chain of UniProt Q16552 (Q16552 with tags, fused parts or gaps K93Q): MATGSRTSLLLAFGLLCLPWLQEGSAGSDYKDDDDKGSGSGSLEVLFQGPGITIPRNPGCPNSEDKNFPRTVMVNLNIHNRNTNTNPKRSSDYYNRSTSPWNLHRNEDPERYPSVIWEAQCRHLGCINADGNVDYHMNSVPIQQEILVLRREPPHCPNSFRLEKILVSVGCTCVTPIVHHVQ
In general terms: TR-FRET usually uses a lanthanide donor and a delayed reading to cut background.

Assay [2] has as its system IL-17A-induced G-CSF production in human normal keratinocyte (NHK). The assay can be described thus: NHK Assay: IL-17A-induced G-CSF production in human normal keratinocytes. It is filed as cell-based. As to conditions: adult normal human keratinocytes, IL-17A 5 ng/mL, 24 h, simple average if tested more than once. In outline:
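IL-17A (5 ng/mL final) was pre-incubated 1 h at rt with titrated compound and then added to adult normal human keratinocytes (5% FBS, 0.2% DMSO) for 24 h at 37° C. Supernatant G-CSF was measured by HTRF against a standard curve to derive IC50. Viability was checked by CellTiter-Glo.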

pIC50: −log10 of the molar value.

For the compound `O=C(CC1CC(F)(F)C1)NC(c1cnn2cc([C@@H](NC(=O)c3cnn(CCC(F)(F)F)c3)C3CCC(F)(F)CC3)nc2c1)C1CC1` (single isomer, unassigned) [Example 9, N—((S)-(7-((S*)-Cyclopropyl(2-(3,3-difluorocyclobutyl)acetamido)methyl)imidazo[1,2-b]pyridazin-2-yl)(4,4-difluorocyclohexyl)methyl)-1-(3,3,3-trifluoropropyl)-1H-pyrazole-4-carboxamide], the pIC50 in assay [1] is 5.08; in assay [2] it was under 4.70.

For `O=C(CCC(F)(F)F)N[C@@H](c1cnn2cc([C@@H](NC(=O)c3cnnn3CC3CC3)C3CCC(F)(F)CC3)nc2c1)C1CC1` [Example 48, N—((S)-(7-((R)-Cyclopropyl(4,4,4-trifluorobutanamido)methyl)imidazo[1,2-b]pyridazin-2-yl)(4,4-difluorocyclohexyl)methyl)-1-(cyclopropylmethyl)-1H-1,2,3-triazole-5-carboxamide], the pIC50 is 7.20 in assay [1] and 6.80 in assay [2] (Homo sapiens, Keratinocyte).

Regarding `[2H]C([2H])([2H])n1nccc1C(=O)N[C@H](c1cn2ncc([C@H](NC(=O)C[C@@H](C)C(F)(F)F)C3CCC3)cc2n1)C1CCC(F)(F)CC1` (relative stereo) [Example 502, N—((S)-(7-((R*)-Cyclobutyl((R*)-4,4,4-trifluoro-3-methylbutanamido)methyl)imidazo[1,2-b]pyridazin-2-yl)(4,4-difluorocyclohexyl)methyl)-1-(methyl-d3)-1H-pyrazole-5-carboxamide], the pIC50 in assay [1] is 6.80; in assay [2] (Homo sapiens, Keratinocyte), 6.40.

For the compound `CC(C)n1nccc1C(=O)N[C@H](c1cn2ncc(C(NC(=O)CC3CC(F)(F)C3)C3(C#N)CC3)cc2n1)C1CCC(F)(F)CC1` (single isomer, unassigned) [Example 426, N—((S)-(7-((S*)-(1-Cyanocyclopropyl)(2-(3,3-difluorocyclobutyl)acetamido)methyl)imidazo[1,2-b]pyridazin-2-yl)(4,4-difluorocyclohexyl)methyl)-1-isopropyl-1H-pyrazole-5-carboxamide], the pIC50 in assay [1] was 6.47; in assay [2] it was 7.00.

Turning to `CC(C)n1nccc1C(=O)N[C@H](c1cn2ncc([C@H](NC(=O)CC3CCCC3(F)F)C3CC3)cc2n1)C1CCC(F)(F)CC1` (stereo partly drawn) [Example 275, N-((1S)-(7-((1R)-Cyclopropyl(2-(2,2-difluorocyclopentyl)acetamido)methyl)imidazo[1,2-b]pyridazin-2-yl)(4,4-difluorocyclohexyl)methyl)-1-isopropyl-1H-pyrazole-5-carboxamide], the pIC50 is 6.77 in assay [1] and 6.82 in assay [2] (Homo sapiens, Keratinocyte).

Regarding `O=C(CCC(F)(F)F)N[C@@H](c1cnn2cc([C@@H](NC(=O)c3ccnnc3)C3CCC(F)(F)CC3)nc2c1)C1CC1` [Example 457, N—((S)-(7-((R)-Cyclopropyl(4,4,4-trifluorobutanamido)methyl)imidazo[1,2-b]pyridazin-2-yl)(4,4-difluorocyclohexyl)methyl)pyridazine-4-carboxamide], the pIC50 in assay [1] was 5.92; in assay [2] (Homo sapiens, Keratinocyte) it was 5.54.

Take `O=C(CCC(F)(F)F)N[C@@H](c1cnn2cc([C@@H](NC(=O)c3ccccc3C(F)F)C3CCC(F)(F)CC3)nc2c1)C1CC1` [Example 187, N—((S)-(7-((R)-Cyclopropyl(4,4,4-trifluorobutanamido)methyl)imidazo[1,2-b]pyridazin-2-yl)(4,4-difluorocyclohexyl)methyl)-2-(difluoromethyl)benzamide]: the pIC50 in assay [1] was 6.59; in assay [2] (Homo sapiens, Keratinocyte), 6.14.

`N#CC1(C(NC(=O)C(F)(F)CC2CC2)c2cnn3cc([C@@H](NC(=O)c4nonc4C4CC4)C4CCC(F)(F)CC4)nc3c2)CC1` (single isomer, unassigned) [Example 436, N—((S)-(7-((R*)-(1-Cyanocyclopropyl)(3-cyclopropyl-2,2-difluoropropanamido)methyl)imidazo[1,2-b]pyridazin-2-yl)(4,4-difluorocyclohexyl)methyl)-4-cyclopropyl-1,2,5-oxadiazole-3-carboxamide]: the pIC50 was 5.89 in assay [1] and under 4.70 in assay [2] (Homo sapiens, Keratinocyte).

Consider `O=C(CCC(F)(F)F)N[C@@H](c1cnn2cc([C@@H](NC(=O)c3cc(F)cc(OC(F)F)c3)C3CCC(F)(F)CC3)nc2c1)C1CC1` [Example 165, N—((S)-(7-((R)-Cyclopropyl(4,4,4-trifluorobutanamido)methyl)imidazo[1,2-b]pyridazin-2-yl)(4,4-difluorocyclohexyl)methyl)-3-(difluoromethoxy)-5-fluorobenzamide], for which the pIC50 in assay [1] was 7.28; in assay [2] (Homo sapiens, Keratinocyte), 6.89.

For the compound `CC(C)n1nccc1C(=O)N[C@H](c1cn2ncc([C@H](NC(=O)CCC(C)(F)F)C3CC3)cc2n1)C1CCC(F)(F)CC1` [Example 260, N—((S)-(7-((R)-Cyclopropyl(4,4-difluoropentanamido)methyl)imidazo[1,2-b]pyridazin-2-yl)(4,4-difluorocyclohexyl)methyl)-1-isopropyl-1H-pyrazole-5-carboxamide], the pIC50 was 6.92 in assay [1] and 6.74 in assay [2] (Homo sapiens, Keratinocyte).

Regarding `O=C(CC1CC(F)(F)C1)N[C@@H](c1cnn2cc([C@@H](NC(=O)c3nonc3OCC(F)F)C3CCC(F)(F)CC3)nc2c1)C1CC1` [Example 389, N—((S)-(7-((R)-Cyclopropyl(2-(3,3-difluorocyclobutyl)acetamido)methyl)imidazo[1,2-b]pyridazin-2-yl)(4,4-difluorocyclohexyl)methyl)-4-(2,2-difluoroethoxy)-1,2,5-oxadiazole-3-carboxamide], the pIC50 in assay [1] was 7.25; in assay [2] (Homo sapiens, Keratinocyte), 7.54.

Regarding `Cc1nscc1C(=O)N[C@H](c1cn2ncc([C@H](NC(=O)CCC(F)(F)F)C3CC3)cc2n1)C1CCC(F)(F)CC1` [Example 161, N—((S)-(7-((R)-Cyclopropyl(4,4,4-trifluorobutanamido)methyl)imidazo[1,2-b]pyridazin-2-yl)(4,4-difluorocyclohexyl)methyl)-3-methylisothiazole-4-carboxamide], the pIC50 was 7.21 in assay [1] and 6.51 in assay [2] (Homo sapiens, Keratinocyte).

As for `O=C(CCC(F)(F)F)N[C@@H](c1cnn2cc([C@@H](NC(=O)c3cnn(CCNCC(F)(F)CCl)n3)C3CCC(F)(F)CC3)nc2c1)C1CC1` [Example 486, 2-[2-[(3-Chloro-2,2-difluoro-propyl)amino]ethyl]-N—[(S)-[7-[(R)-cyclopropyl-(4,4,4-trifluorobutanamido)methyl]imidazo[1,2-b]pyridazin-2-yl]-(4,4-difluorocyclohexyl)methyl]triazole-4-carboxamide], the pIC50 in assay [1] is 6.52; in assay [2] (Homo sapiens, Keratinocyte), 5.96.

As to `Cc1nonc1C(=O)N[C@H](c1cn2ncc([C@H](NC(=O)COC(F)F)C3CC3)cc2n1)C1CCC(F)(F)CC1` [Example 278, N—((S)-(7-((R)-Cyclopropyl(2-(difluoromethoxy)acetamido)methyl)imidazo[1,2-b]pyridazin-2-yl)(4,4-difluorocyclohexyl)methyl)-4-methyl-1,2,5-oxadiazole-3-carboxamide], the pIC50 in assay [1] was 5.96; in assay [2] (Homo sapiens, Keratinocyte), 5.60.

As to `Cc1c(C(=O)N[C@H](c2cn3ncc(C(NC(=O)CC4CC(F)(F)C4)C4CC4)cc3n2)C2CCC(F)(F)CC2)cnn1CCC(F)(F)F` (single isomer, unassigned) [Example 51, N—((S)-(7-((S*)-Cyclopropyl(2-(3,3-difluorocyclobutyl)acetamido)methyl)imidazo[1,2-b]pyridazin-2-yl)(4,4-difluorocyclohexyl)methyl)-5-methyl-1-(3,3,3-trifluoropropyl)-1H-pyrazole-4-carboxamide], the negative-log IC50 (pIC50) is 4.92 in assay [1] and about 4.74 in assay [2].

Consider `CC(CC(=O)N[C@@H](c1cnn2cc([C@@H](NC(=O)c3conc3OCC(F)F)C3CCC(F)(F)CC3)nc2c1)C1CC1)C(F)(F)F` (single isomer, unassigned) [Example 299, N—((S)-(7-((R)-Cyclopropyl((S*)-4,4,4-trifluoro-3-methylbutanamido)methyl)imidazo[1,2-b]pyridazin-2-yl)(4,4-difluorocyclohexyl)methyl)-3-(2,2-difluoroethoxy)isoxazole-4-carboxamide], for which the pIC50 in assay [1] was 6.52; in assay [2] it was 6.08.

With `O=C(CCC(F)(F)F)N[C@@H](c1cnn2cc([C@@H](NC(=O)c3ncccc3OCC(F)(F)F)C3CCC(F)(F)CC3)nc2c1)C1CC1` [Example 419, N—((S)-(7-((R)-Cyclopropyl(4,4,4-trifluorobutanamido)methyl)imidazo[1,2-b]pyridazin-2-yl)(4,4-difluorocyclohexyl)methyl)-3-(2,2,2-trifluoroethoxy)picolinamide], the pIC50 in assay [1] is 5.89; in assay [2] (Homo sapiens, Keratinocyte), under 4.70.

With `[2H]C([2H])([2H])n1nccc1C(=O)N[C@H](c1cn2ncc([C@H](NC(=O)CCC(F)(F)F)C3CC3)cc2n1)C1CCC(F)(F)CC1` [Example 488, N—((S)-(7-((R)-Cyclopropyl(4,4,4-trifluorobutanamido)methyl)imidazo[1,2-b]pyridazin-2-yl)(4,4-difluorocyclohexyl)methyl)-1-(methyl-d3)-1H-pyrazole-5-carboxamide], the pIC50 in assay [1] was 7.02; in assay [2] (Homo sapiens, Keratinocyte), 6.66.

Regarding `CC(C)n1nccc1C(=O)N[C@H](c1cn2ncc(C(NC(=O)CC3CC(F)(F)C3)C(F)F)cc2n1)C1CCC(F)(F)CC1` (single isomer, unassigned) [Example 519, N—((S)-(7-((S*)-1-(2-(3,3-Difluorocyclobutyl)acetamido)-2,2-difluoroethyl)imidazo[1,2-b]pyridazin-2-yl)(4,4-difluorocyclohexyl)methyl)-1-isopropyl-1H-pyrazole-5-carboxamide], the pIC50 is 6.72 in assay [1] and 7.28 in assay [2].
